This passage reports Ki, EC50 and Emax results from US9388162B2, “Substituted morphinans and the use thereof” (Purdue Pharma L.P., priority 2012, dated 2016).

Test [1] concerns the target recombinant human kappa opioid receptor (κ) (Homo sapiens (Human), UniProt P41145). Nature of the test: κ-opioid receptor radioligand dose displacement binding assay ([3H]-U69,593). The settings on record: mean ± SEM, read-out: Binding Affinity Opioid Receptor Ki (nM) [mean ± SEM] κ. As for the experimental part: (§1) Membranes from HEK-293 cells, CHO or U-2 OS cells expressing the recombinant human kappa opioid receptor (κ) were prepared by lysing cells in ice cold hypotonic buffer (2.5 mM MgCl2, 50 mM HEPES, pH 7.4) (10 mL/10 cm dish) followed by homogenization with a tissue grinder/Teflon pestle. Membranes were collected by centrifugation at 30,000×g for 15 min at 4° C. and pellets were resuspended in hypotonic buffer to a final concentration of 1-3 mg/mL. Protein concentrations were determined using the BioRad protein assay reagent with bovine serum albumen as standard. Aliquots of κ receptor membranes were stored at −80° C.
Radioligand dose displacement assays used 0.4 nM [^3H]-U69,593 (GE Healthcare, Piscataway, N.J.; 40 Ci/mmole) with 15 μg membrane protein (recombinant κ opioid receptor expressed in HEK 293 cells; in-house prep) in a final volume of 200 μl binding buffer (5% DMSO, 50 mM Trizma base, pH 7.4). Non-specific binding was determined in the presence of 10 μM unlabeled naloxone or U69,593. All reactions were performed in 96-well polypropylene plates for 1 hour at a temperature of about 25° C. Binding reactions were terminated by rapid filtration onto 96-well Unifilter GF/C filter plates (Perkin Elmer, Shelton, Conn.) presoaked in 0.5% polyethylenimine (Sigma). Harvesting was performed using a 96-well tissue harvester (Perkin Elmer, Shelton, Conn.) followed by five filtration washes with 200 μl ice-cold binding buffer. Filter plates were subsequently dried at 50° C. for 1-2 hours. Fifty μl/well scintillation cocktail (Perkin Elmer, Shelton, Conn.) was added and plates were counted in a Packard Top-Count for 1 min/well.
(§2) The following tables provide results on the efficacy of binding and activity response of exemplified Compounds of the Invention at the μ- and κ-opioid receptors. In TABLE 3, binding affinity of certain Compounds of the Invention to the μ- and κ-opioid receptors was determined as described above. In TABLE 4, activity response of certain Compounds of the Invention to the μ- and κ-opioid receptors was determined as described above for functional assays using HEK-293 cells. In TABLE 5, activity response of certain Compounds of the Invention to the μ- and κ-opioid receptors was determined as described above using U-2 OS cells.

Test [2] concerns the target T1, μ-opioid receptors (Homo sapiens (Human), UniProt P35372). Nature of the test: μ-opioid receptor [35S]GTPγS functional assay, HEK-293 cells. The format is biochemical. Particulars: μ GTP; for EC50: read-out: Activity Response μ EC50 (nM) [mean ± SEM]; for Emax: relative to DAMGO, read-out: Activity Response μ Emax (%). As for the experimental part:
[^35S]GTPγS functional assays were conducted using freshly thawed μ-receptor membranes prepared from a cell line expressing recombinant μ opioid receptor in a HEK-293, CHO or U-2 OS cell background or purchased from a commercial source (Perkin Elmer, Shelton, Conn.; or DiscovRx, Fremont, Calif.). Assay reactions were prepared by sequentially adding the following reagents to binding buffer (100 mM NaCl, 10 mM MgCl2, 20 mM HEPES, pH 7.4) on ice (final concentrations indicated): membrane protein (0.026 mg/mL), saponin ([…]), GDP ([…]) and [^35S]GTPγS (0.20 nM; Perkin Elmer, Shelton, Conn.). The prepared membrane solution (190 μl/well) was transferred to 96-shallow well polypropylene plates containing 10 μl of 20× concentrated stock solutions of the agonist [D-Ala^2, N-methyl-Phe^4 Gly-ol^5]-enkephalin (DAMGO) prepared in dimethyl sulfoxide (DMSO). Plates were incubated for 30 min at about 25° C. with shaking. Reactions were terminated by rapid filtration onto 96-well Unifilter GF/B filter plates (Perkin Elmer, Shelton, Conn.) using a 96-well tissue harvester (Perkin Elmer, Shelton, Conn.) followed by three filtration washes with 200 μl of ice-cold wash buffer (10 mM NaH2PO4, 10 mM Na2HPO4, pH 7.4). Filter plates were subsequently dried at 50° C. for 2-3 hours. BetaScint scintillation cocktail (Perkin Elmer, Shelton, Conn.) was added (50 μl/well) and plates were counted using a Packard Top-Count for 1 min/well. Data were analyzed using the sigmoidal dose-response curve fitting functions in GraphPad PRISM v. 3.0, or an in-house function for non-linear, sigmoidal dose-response curve-fitting.
μ GTP EC50 is the concentration of a compound providing 50% of the maximal response for the compound at a μ-opioid receptor.
μ GTP Emax (%) is the maximal effect elicited by a compound relative to the effect elicited by DAMGO, a standard μ agonist. Generally, the μ GTP Emax (%) value measures the efficacy of a compound to treat or prevent pain or other Conditions.
as §2

Test [3] concerns the target T2, κ opioid receptor (Homo sapiens (Human), UniProt P41145). Description: κ-opioid receptor [35S]GTPγS functional assay, HEK-293 cells. The format is biochemical. The settings on record: κ GTP; for EC50: read-out: Activity Response κ EC50 (nM) [mean ± SEM]; for Emax: relative to U69,593, read-out: Activity Response κ Emax (%). As for the experimental part: as §1
Functional [^35S]GTPγS binding assays were conducted as follows. κ opioid receptor membrane solution was prepared by sequentially adding final concentrations of 0.026 μg/μl κ membrane protein (in-house), 10 μg/mL saponin, 3 μM GDP and 0.20 nM [^35S]GTPγS to binding buffer (100 mM NaCl, 10 mM MgCl2, 20 mM HEPES, pH 7.4) on ice. The prepared membrane solution (190 μl/well) was transferred to 96-shallow well polypropylene plates containing 10 μl of 20× concentrated stock solutions of agonist prepared in DMSO. Plates were incubated for 30 min at a temperature of about 25° C. with shaking. Reactions were terminated by rapid filtration onto 96-well Unifilter GF/B filter plates (Perkin Elmer, Shelton, Conn.) using a 96-well tissue harvester (Packard) and followed by three filtration washes with 200 μl ice-cold binding buffer (10 mM NaH2PO4, 10 mM Na2HPO4, pH 7.4). Filter plates were subsequently dried at 50° C. for 2-3 hours. Fifty μl/well scintillation cocktail (Perkin Elmer, Shelton, Conn.) was added and plates were counted in a Packard Top-Count for 1 min/well.
κ GTP EC50 is the concentration of a compound providing 50% of the maximal response for the compound at a κ receptor.
κ GTP Emax (%) is the maximal effect elicited by a compound relative to the effect elicited by U69,593.
In TABLE 3, binding affinity of certain Compounds of the Invention to the μ- and κ-opioid receptors was determined as described above. In TABLE 4, activity response of certain Compounds of the Invention to the μ- and κ-opioid receptors was determined as described above for functional assays using HEK-293 cells. In TABLE 5, activity response of certain Compounds of the Invention to the μ- and κ-opioid receptors was determined as described above using U-2 OS cells.

Test [4] deals with T1, μ-opioid receptors. Description: μ-opioid receptor radioligand dose-displacement binding assay ([3H]-diprenorphine). Particulars: mean ± SEM, read-out: Binding Affinity Opioid Receptor Ki (nM) [mean ± SEM] μ. As for the experimental part: Radioligand dose-displacement binding assays for μ-opioid receptors used 0.3 nM [^3H]-diprenorphine (Perkin Elmer, Shelton, Conn.), with […] membrane protein/well in a final volume of 500 μl binding buffer (10 mM MgCl2, 1 mM EDTA, 5% DMSO, 50 mM HEPES, pH 7.4). Reactions were carried out in the absence or presence of increasing concentrations of unlabeled naloxone. All reactions were conducted in 96-deep well polypropylene plates for 2 hours at room temperature. Binding reactions were terminated by rapid filtration onto 96-well Unifilter GF/C filter plates (Perkin Elmer, Shelton, Conn.), presoaked in 0.5% polyethylenimine using a 96-well tissue harvester (Perkin Elmer, Shelton, Conn.) followed by performing three filtration washes with 500 μl of ice-cold binding buffer. Filter plates were subsequently dried at 50° C. for 2-3 hours. BetaScint scintillation cocktail (Perkin Elmer, Shelton, Conn.) was added (50 μl/well), and plates were counted using a Packard Top-Count for 1 min/well. The data were analyzed using the one-site competition curve fitting functions in GraphPad PRISM™ v. 3.0 or higher (San Diego, Calif.), or an in-house function for one-site competition curve-fitting.
as §2

The target of test [5] is T2, κ opioid receptor. Nature of the test: κ-opioid receptor [35S]GTPγS functional assay, U-2 OS cells. The format is biochemical. Particulars: κ GTP.

With `CCOC(=O)C[C@H]1C[C@@]2(O)[C@H]3Cc4ccc(OC)cc4[C@@]2(CCN3CC2CC2)CC1=O` [Compound 1, ethyl 2-((4bR,7R,8aS,9R)-11-(cyclopropylmethyl)-8a-hydroxy-3-methoxy-6-oxo-6,7,8,8a,9,10-hexahydro-5H-9,4b-(epiminoethano)phenanthren-7-yl)acetate], in test [1], the Ki worked out at 408 ± 34.1 nM. Moreover, the EC50 at μ-opioid receptors [2] came to 3400 ± 584 nM; at κ opioid receptor [3] it was 5110 ± 1260 nM. In addition, the values for the Emax at μ-opioid receptors [2] and on κ opioid receptor [3] were 59.3 ± 3.38% and 72 ± 3.21%, respectively.

With `COc1ccc2c(c1)[C@]13CCN(CC4CC4)[C@H](C2)[C@]1(O)C[C@H](CC(=O)O)C(=O)C3` [Compound 8, 2-((4bR,7R,8aS,9R)-11-(cyclopropylmethyl)-8a-hydroxy-3-methoxy-6-oxo-6,7,8,8a,9,10-hexahydro-5H-9,4b-(epiminoethano)phenanthren-7-yl)acetic acid], the inhibition constant Ki in test [1] is 261 ± 97.3 nM. On μ-opioid receptors [2], the EC50 stood at 703 ± 72 nM and the Emax came out at 59.7 ± 8.69%. Moreover, at κ opioid receptor [3], the EC50 came to 4440 ± 679 nM and the maximum response (Emax) came out at 66.7 ± 6.84%.

In the case of `C[C@H](NC(=O)C[C@H]1C[C@@]2(O)[C@H]3Cc4ccc(O)cc4[C@@]2(CCN3CC2CC2)CC1=O)C(=O)O` [Compound 15, (S)-2-(2-((4bR,7R,8aS,9R)-11-(cyclopropylmethyl)-3,8a-dihydroxy-6-oxo-6,7,8,8a,9,10-hexahydro-5H-9,4b-(epiminoethano)phenanthren-7-yl)acetamido)propanoic acid], the inhibition constant (Ki) in test [1] came to 191 ± 45.8 nM. For the same compound, the EC50 was 43.8 ± 14.7 nM at μ-opioid receptors [2] and 221 ± 59.4 nM at κ opioid receptor [3]. The Emax at μ-opioid receptors [2] is 36.2 ± 3.75%; on κ opioid receptor [3], 36 ± 2%.

With `COc1ccc2c(c1)[C@]13CCN(CC4CC4)[C@H](C2)[C@]1(O)C[C@H](CC(=O)N1CCC[C@H]1C(=O)O)C(=O)C3` [Compound 16, (S)-1-(2-((4bR,7R,8aS,9R)-11-(cyclopropylmethyl)-8a-hydroxy-3-methoxy-6-oxo-6,7,8,8a,9,10-hexahydro-5H-9,4b-(epiminoethano)phenanthren-7-yl)acetyl)pyrrolidine-2-carboxylic acid], the Ki in test [1] is above 20000 nM. Also, at μ-opioid receptors [2], the EC50 was 6770 ± 1370 nM and the Emax is 28.7 ± 1.86%.

Consider `O=C1C[C@]23CCN(CC4CC4)[C@H](Cc4ccc(O)cc42)[C@]3(O)C[C@@H]1CC(=O)N1CCC[C@H]1C(=O)O` [Compound 17, (S)-1-(2-((4bR,7R,8aS,9R)-11-(cyclopropylmethyl)-3,8a-dihydroxy-6-oxo-6,7,8,8a,9,10-hexahydro-5H-9,4b-(epiminoethano)phenanthren-7-yl)acetyl)pyrrolidine-2-carboxylic acid], for which the Ki in test [1] came out at 128 ± 18.1 nM. Further, on μ-opioid receptors [2], the EC50 was above 200000 nM and the maximal effect (Emax) amounted to 0%. The EC50 at κ opioid receptor [3] is above 200000 nM.

On to `COc1ccc2c(c1)[C@]13CCN(CC4CC4)[C@H](C2)[C@]1(O)C[C@H](CC(=O)N[C@@H](CC(C)C)C(=O)O)C(=O)C3` [Compound 18, (S)-2-(2-((4bR,7R,8aS,9R)-11-(cyclopropylmethyl)-8a-hydroxy-3-methoxy-6-oxo-6,7,8,8a,9,10-hexahydro-5H-9,4b-(epiminoethano)phenanthren-7-yl)acetamido)-4-methylpentanoic acid], for which, in test [1], the Ki came to 15900 nM. Also, on μ-opioid receptors [2], the EC50 stood at 2750 ± 221 nM and the Emax amounted to 50 ± 1.53%.

In the case of `CC(C)C[C@H](NC(=O)C[C@H]1C[C@@]2(O)[C@H]3Cc4ccc(O)cc4[C@@]2(CCN3CC2CC2)CC1=O)C(=O)O` [Compound 19, (S)-2-(2-((4bR,7R,8aS,9R)-11-(cyclopropylmethyl)-3,8a-dihydroxy-6-oxo-6,7,8,8a,9,10-hexahydro-5H-9,4b-(epiminoethano)phenanthren-7-yl)acetamido)-4-methylpentanoic acid], in test [1], the Ki is 146 ± 29.7 nM. Further, the EC50 at μ-opioid receptors [2] is 49.7 ± 7.48 nM; at κ opioid receptor [3], 201 ± 25.9 nM. For the same compound, the Emax at μ-opioid receptors [2] is 37.5 ± 3.93%; at κ opioid receptor [3], 41.3 ± 2.85%.

With `COCC[C@H]1C[C@@]2(O)[C@H]3Cc4ccc(OC)cc4[C@@]2(CCN3CC2CC2)CC1=O` [Compound 49, (4bR,7S,8aS,9R)-11-(cyclopropylmethyl)-8a-hydroxy-3-methoxy-7-(2-methoxyethyl)-8,8a,9,10-tetrahydro-5H-9,4b-(epiminoethano)phenanthren-6(7H)-one], the Ki turned out to be 324 ± 48 nM in test [1] and 1960 ± 638 nM on μ-opioid receptors [4]. For the same compound, the half-maximal effective concentration (EC50) at κ opioid receptor [5] (read-out: Activity Response κ EC50 (nM) [mean ± SEM]) was determined as 1280 ± 160 nM. In addition, on κ opioid receptor [5] (relative to U69,593, read-out: Activity Response κ Emax (%)), the Emax was 108 ± 5.57%.
